Laboratory results from patent publication US20210161997A1, “TREATING DISEASES VIA TARGETED MODULATION OF GENE SIGNALING NETWORKS” (Camp4 Therapeutics Corporation, priority 2018, published 2021).
Structures can show the parent of a compound that is named as a salt. Where two headings read alike, the source gives them in different places.

Key:
Type in all cases: cell-based
FN1 = assay: RNA-seq of FN1 expression in compound-treated primary human hepatocytes; details: perturbed vs unperturbed, significance FPKM ≥1, log 2(fold change) ≥0.5, q-value ≤0.05
Description: (§1) Human hepatocytes were obtained from two donors from Massachusetts General Hospital, namely MGH54 and MGH63, and one donor from Lonza, namely HUM4111B. Cryopreserved hepatocytes were cultured in plating media for 16 hours, transferred to maintenance media for 4 hours. Cultured on serum-free media for 2 hours, then a compound was added. The hepatocytes were maintained on the serum-free media for 16 hours prior to gene expression analysis. Primary human hepatocytes were stored in the vapor phase of a liquid nitrogen freezer (about −130° C.).
(§2) Human hepatocytes cultured as described above were plated in 24-well format, adding 375,000 cells per well in a volume of 500 ul plating medium. Four hours before treatment, cells were washed with PBS and the medium was changed to either: fresh maintenance medium (complete) or modified maintenance medium.
(§3) Compound stocks were prepared at 1000× final concentration and added in a 2-step dilution to the medium to reduce risk of a compound precipitating out of solution when added to the cells, and to ensure reasonable pipetting volumes. One at a time, each compound was first diluted 10-fold in warm (about 37° C.) modified maintenance medium (initial dilution=ID), mixed by vortexing, and the ID was diluted 100-fold into the cell culture (e.g. 5.1 ul into 1 well of a 24-well plate containing 0.5 mL medium). The plate was mixed by carefully swirling and after all wells were treated and returned to the incubator overnight. If desired, separate plates/wells were treated with vehicle-only controls and/or positive controls. If using multi-well plates, controls were included on each plate. After about 18 hours, cells were harvested for further analysis, e.g., ChIP-seq, RNA-seq, ATAC-seq, etc.
(§4) This protocol is a modified version of the following protocols: MagMAX mirVana Total RNA Isolation Kit User Guide (Applied Biosystems #MAN0011131 Rev B.0), NEBNext Poly(A) mRNA Magnetic Isolation Module (E7490), and NEBNext Ultra Directional RNA Library Prep Kit for Illumina (E7420) (New England Biosystems #E74901).
(§5) The MagMAX mirVana kit instructions (the section titled “Isolate RNA from cells” on pages 14-17) were used for isolation of total RNA from cells in culture. Two hundred μl of Lysis Binding Mix was used per well of the multiwell plate containing adherent cells (usually a 24-well plate).
(§6) For mRNA isolation and library prep, the NEBNext Poly(A) mRNA Magnetic Isolation Module and Directional Prep kit was used. RNA isolated from cells above was quantified, and prepared in […] of each sample in 50 μl of nuclease-free water. This protocol may be run in microfuge tubes or in a 96-well plate.
All pass filter reads from each sample were mapped against the human genome (assembly GRCh38/GCA_000001405.15 “no alt” analysis set merged with hs38d1/GCA_000786075.2) using two pass mapping via STAR version 2.5.3a (alignment parameters alignIntronMin=20; alignIntronMax=1000000; outFilterMismatchNmax=999; outFilterMismatchNoverLmax=0.05; outFilterType=BySJout; outFilterMultimapNmax=20; alignSJoverhangMin=8; alignSJDBoverhangMin=1; alignMatesGapMax=1000000) (Dobin et al., Bioinformatics (2012) 29(1):15-21). Genomic alignments were converted to transcriptome alignments based on reference transcript annotations from the Human GENCODE Gene Set release 24 (Harrow et al., Genome Res. (2012) 22(9): 1760-1774). Using unique and multimapped transcriptomic alignments, gene-level abundance estimates were computed using RSEM version 1.3.0 (Li and Dewey, BMC Bioinformatics (2011) 12:323) in a strand-aware manner, and including confidence interval sampling calculations, to arrive at posterior mean estimates (PME) of abundances (counts and normalized FPKM—fragments per kilobase of exon per million mapped fragments) from the underlying Bayesian model. Standard QC were applied (read integrity, mapping statistics, library complexity, fragment bias) to remove unsatisfactory samples.

ANGPTL3 = assay: RNA-seq of ANGPTL3 expression in compound-treated primary human hepatocytes; details: additional compounds (Table 13), linear fold change
Procedure, shortened: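 Cryopreserved primary human hepatocytes from three donors, plated at 375,000 cells/well, switched to complete or modified maintenance medium, then dosed with compound (stocks at 1000× final) for about 18 h. Poly(A) mRNA was sequenced directionally, mapped to GRCh38 with STAR, and gene-level abundance (counts, FPKM) estimated with RSEM against GENCODE 24.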

LECT2 = assay: RNA-seq of LECT2 expression in compound-treated primary human hepatocytes
Description: as §1, §2, §3, §4, §5, §6
(§7) Standard QC were applied (read integrity, mapping statistics, library complexity, fragment bias) to remove unsatisfactory samples. […] Log 2 fold change and significance values were computed using PME count data (with replicates explicitly modeled versus pan-experiment controls), median ratio normalized, using maximum likelihood estimation rather than maximum a posteriori, and disabling the use of Cook's distance cutoff when determining acceptable adjusted p-values. […] RNA-seq signals were also normalized by read depth and visualized using the UCSC browser.
(§8) To identify small molecules that modulate target gene expression, primary human hepatocytes were prepared as a monoculture, and at least one small molecule compound was applied to the cells.
(§9) RNA-seq was performed to determine the effects of the compounds on the expression of the target genes in hepatocytes. Fold change was calculated by dividing the level of expression in the cell system that had been perturbed by the level of expression in an unperturbed system. Changes in expression having a p-value ≤0.05 were considered significant.
Significance was defined as an FPKM ≥1, a log 2(fold change) ≥0.5, and a q-value of ≤0.05 for all targets except for CPOX.

CPOX = assay: RNA-seq of CPOX expression in compound-treated primary human hepatocytes
Description: as §1, §2, §3, §4, §5, §6, §7, §8, §9
Significance was defined as an FPKM ≥0.5 a log 2(fold change) ≥0.3, and a q-value of ≤0.05.

UGT1A1 = assay: RNA-seq of UGT1A1 expression in compound-treated primary human hepatocytes
Procedure, shortened: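 Cryopreserved primary human hepatocytes from three donors were plated in 24-well format, then treated with compound diluted from 1000× stocks in serum-free maintenance medium for about 16–18 h. Poly(A) RNA-seq log2 fold change was computed against vehicle/pan-experiment controls. Significance required FPKM ≥1, log2FC ≥0.5 and q ≤0.05.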

JAG1 = assay: RNA-seq of JAG1 expression in compound-treated primary human hepatocytes
Description: (§10) Human hepatocytes were obtained from two donors from Massachusetts General Hospital, namely MGH54 and MGH63, and one donor from Lonza, namely HUM4111B. Cryopreserved hepatocytes were cultured in plating media for 16 hours, transferred to maintenance media for 4 hours. Cultured on serum-free media for 2 hours, then a compound was added. The hepatocytes were maintained on the serum-free media for 16 hours prior to gene expression analysis. Primary human hepatocytes were stored in the vapor phase of a liquid nitrogen freezer (about -130° C.). Human hepatocytes cultured as described above were plated in 24-well format, adding 375,000 cells per well in a volume of 500 ul plating medium. Four hours before treatment, cells were washed with PBS and the medium was changed to either: fresh maintenance medium (complete) or modified maintenance medium. Compound stocks were prepared at 1000× final concentration and added in a 2-step dilution to the medium to reduce risk of a compound precipitating out of solution when added to the cells, and to ensure reasonable pipetting volumes. […] The plate was mixed by carefully swirling and after all wells were treated and returned to the incubator overnight. If desired, separate plates/wells were treated with vehicle-only controls and/or positive controls. If using multi-well plates, controls were included on each plate. After about 18 hours, cells were harvested for further analysis, e.g., ChIP-seq, RNA-seq, ATAC-seq, etc. This protocol is a modified version of the following protocols: MagMAX mirVana Total RNA Isolation Kit User Guide (Applied Biosystems #MAN0011131 Rev B.0), NEBNext Poly(A) mRNA Magnetic Isolation Module ([…]), and NEBNext Ultra Directional RNA Library Prep Kit for Illumina ([…]) (New England Biosystems #E74901). […] Two hundred μl of Lysis Binding Mix was used per well of the multiwell plate containing adherent cells (usually a 24-well plate). For mRNA isolation and library prep, the NEBNext Poly(A) mRNA Magnetic Isolation Module and Directional Prep kit was used. RNA isolated from cells above was quantified, and prepared in […] of each sample in 50 μl of nuclease-free water. This protocol may be run in microfuge tubes or in a 96-well plate. […] Genomic alignments were converted to transcriptome alignments based on reference transcript annotations from the Human GENCODE Gene Set release 24 (Harrow et al., Genome Res. […] Standard QC were applied (read integrity, mapping statistics, library complexity, fragment bias) to remove unsatisfactory samples. Differential gene expression was computed using the negative binomial model implemented by DESeq2 version 1.16.1 (Love et al., Genome Biol. (2014) 15(12):550). […] RNA-seq signals were also normalized by read depth and visualized using the UCSC browser. To identify small molecules that modulate target gene expression, primary human hepatocytes were prepared as a monoculture, and at least one small molecule compound was applied to the cells. RNA-seq was performed to determine the effects of the compounds on the expression of the target genes in hepatocytes. Fold change was calculated by dividing the level of expression in the cell system that had been perturbed by the level of expression in an unperturbed system.

NOTCH2 = assay: RNA-seq of NOTCH2 expression in compound-treated primary human hepatocytes; details: primary human hepatocytes
Description: as §10

Structure (SMILES) | FN1 Fold Change (Log2) (FN1) | ANGPTL3-LINEAR FOLD CHANGE (ANGPTL3) | CPOX Fold change (Log2) (CPOX) | other results
CN1CCN(S(=O)(=O)c2ccc(-c3cnc(N)c(C(=O)Nc4cccnc4)n3)cc2)CC1 [AZD2858] | −1.23 | 0.3186 |  | 
CN(C)C/C=C/C(=O)Nc1cc2c(Nc3ccc(F)c(Cl)c3)ncnc2cc1O[C@H]1CCOC1 [Afatinib] | −0.98 | 0.3078 |  | LECT2 Fold Change (Log2) (LECT2): −0.75 Log2
CCOC(=O)C1=C(COCCN)NC(C)=C(C(=O)OC)C1c1ccccc1Cl (stereo not shown) [Amlodipine Besylate] | −1.22 | 0.3035 |  | LECT2 Fold Change (Log2) (LECT2): −0.55 Log2
CCN1CCN(c2ccc(Nc3cc(N(C)C(=O)Nc4c(Cl)c(OC)cc(OC)c4Cl)ncn3)cc2)CC1 [BGJ398] | −1.36 | 0.3368 |  | 
COc1cc(Nc2c(C#N)cnc3cc(OCCCN4CCN(C)CC4)c(OC)cc23)c(Cl)cc1Cl [Bosutinib] |  |  | 0.34 | 
C=C1/C(=C\C=C2/CCC[C@]3(C)[C@@H]([C@H](C)CCCC(C)(C)O)CC[C@@H]23)C[C@@H](O)C[C@@H]1O [Calcitriol] | −0.79 | 0.483 |  | LECT2 Fold Change (Log2) (LECT2): −1.82 Log2
COc1cc2c(Oc3ccc4[nH]c(C)cc4c3F)ncnc2cc1OCCCN1CCCC1 [Cediranib] | −0.79 | 0.4323 |  | 
CC(=O)N(O)CCCCCNC(=O)CCC(=O)N(O)CCCCCNC(=O)CCC(=O)N(O)CCCCCN [Deferoxamine mesylate] |  |  | 0.37 | 
O=Cc1c2[nH]c3ccccc3c2cc2[nH]c3ccccc3c12 [FICZ] |  | 0.3231 | 0.44 | UGT1A1 Fold Change (Log2) (UGT1A1): 2.62 Log2
C[N+]1(C)CCC(OC(=O)C(O)(c2ccccc2)C2CCCC2)C1 (stereo not shown) [Glycopyrrolate] |  |  |  | CPOX Fold change (Log2) (CPOX; RNA-seq, primary human hepatocytes, significance FPKM ≥0.5, log 2(fold change) ≥0.3, q-value ≤0.05): 0.31 Log2
c1ccc2c(-c3cnn4cc(-c5ccc(N6CCNCC6)cc5)cnc34)ccnc2c1 [LDN193189] | −0.87 | 0.4204 |  | JAG1 Fold Change (Log2) (JAG1; primary human hepatocytes): 2.07 Log2; Significant modulation of JAG1 (in words) (JAG1; summary of Table 6): significantly modulate only JAG1; NOTCH2 Fold Change (Log2) (NOTCH2): 0 Log2
O=C(O)CC[C@H]1CC[C@@](c2cc(F)ccc2F)(S(=O)(=O)c2ccc(Cl)cc2)CC1 [MK-0752] |  |  | 0.34 | 
CCc1nn(CCCN2CCN(c3cccc(Cl)c3)CC2)c(=O)n1CCOc1ccccc1 [Nefazodone] |  |  | 0.35 | 
NCC(=O)Nc1ccc(-n2nc(C(F)(F)F)cc2-c2ccc3c(ccc4ccccc43)c2)cc1 [OSU-03012] | −1.03 | 0.4965 |  | LECT2 Fold Change (Log2) (LECT2): −0.77 Log2
Cc1c(C(=O)NN2CCCCC2)nn(-c2ccc(Cl)cc2Cl)c1-c1ccc(Cl)cc1 [Rimonabant] | −0.76 | 0.4538 |  | LECT2 Fold Change (Log2) (LECT2): −0.81 Log2
O=C(NCCCn1ccnc1)c1cc(-c2ccco2)on1 [SKL2001] | −0.81 | 0.4323 | 0.45 | 
CNC1CCC(N(Cc2cccc(-c3ccncc3)c2)C(=O)c2sc3ccccc3c2Cl)CC1 (stereo not shown) [Smoothened Agonist] | −1.95 | 0.3035 |  | 
COc1cc2nccc(Oc3ccc(NC(=O)Nc4cc(C)on4)c(Cl)c3)c2cc1OC [Tivozanib] | −0.8 | 0.4204 |  | 
CN1C(=O)c2sccc2N(C)c2nc(Nc3ccc(S(N)(=O)=O)cc3)ncc21 [XMU-MP-1] |  |  | 0.37 | 
COc1nc(N)nc2c1ncn2[C@@H]1O[C@H](COP(=O)(N[C@@H](C)C(=O)OCC(C)(C)C)Oc2cccc3ccccc23)[C@@H](O)[C@@]1(C)O (stereo partly shown) [bms-986094 (inx-189)] | −1.00 |  |  | 
